Structures are written as SMILES.

One data set concerns recombinant UGT enzymes. Nature of the data set: Reaction phenotyping with recombinant UGT Supersomes. The format is in vitro ADME, human. The conditions noted are these: substrate 20 µM, UGT 0.2 mg/mL, 2 hours.
For data set [1] the following is noted: in humans; cited from earlier work.

`CC(C)Cc1ccc(CC(=O)O)cc1` [Ibufenac]: the “Metabolism to the corresponding glucuronide by recombinant UGT enzymes” value with recombinant UGT enzymes is listed as “none of the recombinant UGT enzymes studied in the present investigation were found to metabolize ibufenac”.

Consider `CCCC(CCC)C(=O)O` [valproic acid], for which the “Share of drug metabolized to its corresponding glucuronide” value in data set [1] is 50%.
